# System: IFNα-induced STAT phosphorylation (pSTAT5) in human whole blood, CD3 positive population
# Assay: IFNα-Induced STAT Phosphorylation in Human Whole Blood
# Assay type: cell-based
# Details: 1 h incubation with compound, 1000 U/mL recombinant human IFNα A/D for 15 min, pSTAT5 (pY694) median fluorescence in CD3 positive cells, read-out: Human WB IFNα-Induced Stat Phosph. (IC50)
# Procedure: IFNα-Induced STAT Phosphorylation in Human Whole Blood
# After an hour long incubation with compound, human whole blood (drawn with either EDTA or ACD-A as anti-coagulant) was stimulated with 1000 U/mL recombinant human IFNα A/D (R&D Systems 11200-2) for 15 min. The stimulation was stopped by adding Fix/Lyse buffer (BD 558049). Cells were stained with a CD3 FITC antibody (BD 555916), washed, and permeabilized on ice using Perm III buffer (BD 558050). Cells were then stained with an Alexa-Fluor 647 pSTAT5 (pY694) antibody (BD 612599) for 30 min prior to analysis on the FACS Canto II. The amount of pSTAT5 expression was quantitated by median fluorescence intensity after gating on the CD3 positive population.
row,SMILES,IC50
1,[2H]C([2H])([2H])NC(=O)c1nnc(NC(=O)N2CCCCC2)cc1Nc1cccc(-c2ncn(C)n2)c1OC [Example 12],610 nM
2,[2H]C([2H])([2H])NC(=O)c1nnc(NC(=O)NCC(C)C)cc1Nc1cccc(-c2ncn(C)n2)c1OC [Example 36],150 nM
3,[2H]C([2H])([2H])NC(=O)c1nnc(NC(=O)NC(C)CC)cc1Nc1cccc(-c2ncn(C)n2)c1OC (centres unmarked) [Example 48],200 nM
4,[2H]C([2H])([2H])NC(=O)c1nnc(NC(=O)N2CCOCC2)cc1Nc1cccc(-c2ncn(C)n2)c1OC [Example 26],1180 nM
5,[2H]C([2H])([2H])NC(=O)c1nnc(NC(=O)NCC)cc1Nc1ccccc1S(C)(=O)=O [Example 15],520 nM
6,[2H]C([2H])([2H])NC(=O)c1nnc(NC(=O)OC)cc1Nc1cccc(-c2ncn(C)n2)c1OC [Example 41],210 nM
7,COC(=O)Nc1cc(Nc2cccc(-c3noc(CN4CCN(C(=O)OC)CC4)n3)c2OC)c(C(N)=O)nn1 [Example 60],140 nM
8,"[2H]C([2H])([2H])NC(=O)c1nnc(NC(=O)NCC)cc1Nc1cccc(-c2noc(C)n2)c1OC [Example 2, 6-(3-ethylureido)-4-((2-methoxy-3-(5-methyl-1,2,4-oxadiazol-3-yl)phenyl)amino)-N-(trideuteromethyl)pyridazine-3-carboxamide]",110 nM
9,[2H]C([2H])([2H])NC(=O)c1nnc(NC(=O)OC)cc1Nc1cccc(-c2noc(CN(C)S(C)(=O)=O)n2)c1OC [Example 62],100 nM

# Continued by falling IC50, values first:
row,IC50,SMILES
1,430 nM,[2H]C([2H])([2H])NC(=O)c1nnc(NC(=O)N(C)CC(=C)C)cc1Nc1cccc(-c2ncn(C)n2)c1OC [Example 47]
2,330 nM,[2H]C([2H])([2H])NC(=O)c1nnc(NC(=O)OC)cc1Nc1cccc(-c2noc(CN3CCN(C(=O)OC)CC3)n2)c1OC [Example 65]
3,150 nM,[2H]C([2H])([2H])NC(=O)c1nnc(NC(=O)NCCCC)cc1Nc1cccc(-c2ncn(C)n2)c1OC [Example 23]
4,130 nM,[2H]C([2H])([2H])NC(=O)c1cnc(NC(=O)OC)cc1Nc1cccc(-c2nnn(C)n2)c1OC [Example 38]
5,100 nM,[2H]C([2H])([2H])NC(=O)c1cnc(NC(=O)OC)cc1Nc1cccc(-c2ncn(C)n2)c1OC [Example 30]
